Reference: patent publication US12351570B2 (MERCK PATENT GMBH, priority 2018, dated 2025)

Tested on: MDA-MB-231 cells
Assay: Extracellular lactate production inhibition after 4 h, MDA-MB-231
Settings: Homo sapiens, MDA-MB-231

Structure (SMILES)	IC50
COc1cc(C(=O)O)ncc1C#Cc1ccccc1NS(=O)(=O)c1cccc2c(N(C)C)ccnc12 [Compound 418, 5-[2-(4-Dimethylamino-quinoline-8-sulfonylamino)-phenylethynyl]-4-methoxy-pyridine-2-carboxylic acid]	100 to 1000 nM
CN(C)c1ccnc2c(S(=O)(=O)Nc3ccccc3C#Cc3ccc(C(=O)O)nc3)cccc12 [Compound 420, 5-[2-(4-Dimethylamino-quinoline-8-sulfonylamino)-phenylethynyl]-pyridine-2-carboxylic acid]	1000 to 100000 nM
O=C(O)c1ccc(C#Cc2ccccc2NS(=O)(=O)c2cccc3c(N4CCOCC4)ccnc23)cn1 [Compound 422, 5-[2-(4-Morpholin-4-yl-quinoline-8-sulfonylamino)-phenylethynyl]-pyridine-2-carboxylic acid]	1000 to 100000 nM
CNc1ccnc2c(S(=O)(=O)Nc3ccccc3C#Cc3ccc(C(=O)O)nc3)cccc12 [Compound 423, 5-[2-(4-Methylamino-quinoline-8-sulfonylamino)-phenylethynyl]-pyridine-2-carboxylic acid]	1000 to 100000 nM
CS(=O)(=Nc1ccccc1C#Cc1ccc(C(=O)O)nc1)c1ccccc1 (centres unmarked) [Compound 424, 5-[2-(2-{[methyl(oxo)phenyl-λ6-sulfanylidene]amino}phenyl)ethynyl] pyridine-2-carboxylic acid]	1000 to 100000 nM
CNc1ccnc2c(S(=O)(=O)Nc3ccccc3C#Cc3cnc(C(=O)O)cc3C)cccc12 [Compound 425, 4-Methyl-5-[2-(4-methylamino-quinoline-8-sulfonylamino)-phenylethynyl]-pyridine-2-carboxylic acid]	1000 to 100000 nM
CCNc1ccnc2c(S(=O)(=O)Nc3ccccc3C#Cc3ccc(C(=O)O)nc3)cccc12 [Compound 426, 5-[2-(4-Ethylamino-quinoline-8-sulfonylamino)-phenylethynyl]-pyridine-2-carboxylic acid]	1000 to 100000 nM
CC(C)Nc1ccnc2c(S(=O)(=O)Nc3ccccc3C#Cc3ccc(C(=O)O)nc3)cccc12 [Compound 427, 5-[2-(4-Isopropylamino-quinoline-8-sulfonylamino)-phenylethynyl]-pyridine-2-carboxylic acid]	1000 to 100000 nM
COc1ccc(S(C)(=O)=Nc2ccccc2C#Cc2ccc(C(=O)O)nc2)cc1 (centres unmarked) [Compound 428, 5-[2-(2-{[(4-methoxyphenyl)(methyl)oxo-λ6-sulfanylidene]amino}phenyl)ethynyl] pyridine-2-carboxylic acid]	1000 to 100000 nM
CS(=O)(=Nc1ccccc1C#Cc1ccc(C(=O)O)nc1)c1cccc2cccnc12 (centres unmarked) [Compound 429, 5-[2-(2-{[methyl(oxo)(quinolin-8-yl)-λ6-sulfanylidene]amino}phenyl)ethynyl] pyridine-2-carboxylic acid]	1000 to 100000 nM
COc1ccc(NS(=O)(=O)c2ccccc2C#Cc2ccc(C(=O)O)nc2)c(C)c1C [Compound 430, 5-(2-{2-[(4-methoxy-2,3-dimethylphenyl)sulfamoyl]phenyl}ethynyl)pyridine-2-carboxylic acid]	1000 to 100000 nM
CS(=O)(=Nc1ccccc1C#Cc1ccc(C(=O)O)nc1)c1ccc(F)cc1 (centres unmarked) [Compound 431, 5-[2-(2-{[(4-fluorophenyl)(methyl)oxo-λ6-sulfanylidene]amino}phenyl)ethynyl] pyridine-2-carboxylic acid]	1000 to 100000 nM
O=C(O)c1ccc(C#Cc2ccccc2S(=O)(=O)Nc2cccc3cccnc23)cn1 [Compound 432, 5-(2-{2-[(quinolin-8-yl)sulfamoyl]phenyl}ethynyl)pyridine-2-carboxylic acid]	1000 to 100000 nM
COc1ccccc1S(C)(=O)=Nc1ccccc1C#Cc1ccc(C(=O)O)nc1 (centres unmarked) [Compound 433, 5-[2-(2-{[(2-methoxyphenyl)(methyl)oxo-λ6-sulfanylidene]amino}phenyl)ethynyl] pyridine-2-carboxylic acid]	1000 to 100000 nM

Now from value to compound:

IC50	Structure (SMILES)
100 to 1000 nM	Cc1ccc2cccnc2c1S(=O)(=O)Nc1ccccc1C#Cc1ccc(C(=O)OCCOCCO)nc1 [Compound 409, 2-(2-hydroxyethoxy)ethyl 5-{2-[2-(7-methylquinoline-8-sulfonamido)phenyl]ethynyl}pyridine-2-carboxylate]
100 to 1000 nM	COCCOC(=O)c1ccc(C#Cc2ccccc2NS(=O)(=O)c2c(C)ccc3cccnc23)cn1 [Compound 410, 2-methoxyethyl 5-{2-[2-(7-methylquinoline-8-sulfonamido)phenyl]ethynyl}pyridine-2-carboxylate]
100 to 1000 nM	CCc1ccc(S(=O)(=O)Nc2ccccc2C#Cc2ccc(C(=O)O)nc2)c2ncccc12 [Compound 411, 5-{2-[2-(5-ethylquinoline-8-sulfonamido)phenyl]ethynyl}pyridine-2-carboxylic acid]
10 to 100 nM	COCCOC(=O)c1cc(OC)c(C#Cc2ccccc2NS(=O)(=O)c2c(C)ccc3cccnc23)cn1 [Compound 412, 2-methoxyethyl 4-methoxy-5-{2-[2-(7-methylquinoline-8-sulfonamido)phenyl]ethynyl}pyridine-2-carboxylate]
10 to 100 nM	COc1ccc(S(=O)(=O)Nc2ccc(C)cc2C#Cc2ccc(C(=O)O)nc2)c(C)c1C [Compound 413, 5-{2-[2-(4-methoxy-2,3-dimethylbenzenesulfonamido)-5-methylphenyl]ethynyl}pyridine-2-carboxylic acid]
10 to 100 nM	CCCc1ccc(S(=O)(=O)Nc2ccccc2C#Cc2ccc(C(=O)O)nc2)c2ncccc12 [Compound 414, 5-{2-[2-(5-propylquinoline-8-sulfonamido)phenyl]ethynyl}pyridine-2-carboxylic acid]
100 to 1000 nM	Cc1ccc2cccnc2c1S(=O)(=O)Nc1ccccc1C#Cc1cnc(C(=O)O)c2c1NCCN2 [Compound 415, 8-{2-[2-(7-methylquinoline-8-sulfonamido)phenyl]ethynyl}-1H,2H,3H,4H-pyrido[3,4-b]pyrazine-5-carboxylic acid]
100 to 1000 nM	Cc1ccc2cccnc2c1S(=O)(=O)Nc1ccc(C(C)C)cc1C#Cc1ccc(C(=O)O)nc1 [Compound 416, 5-{2-[2-(7-methylquinoline-8-sulfonamido)-5-(propan-2-yl)phenyl]ethynyl}pyridine-2-carboxylic acid]
1 to 10 nM	CCc1ccc(NS(=O)(=O)c2c(C)ccc3cccnc23)c(C#Cc2ccc(C(=O)O)nc2)c1 [Compound 417, 5-{2-[5-ethyl-2-(7-methylquinoline-8-sulfonamido)phenyl]ethynyl}pyridine-2-carboxylic acid]
1000 to 100000 nM	CNc1ccnc2c(S(=O)(=O)Nc3ccccc3C#Cc3cnc(C(=O)O)cc3OC)cccc12 [Compound 419, 4-Methoxy-5-[2-(4-methylamino-quinoline-8-sulfonylamino)-phenylethynyl]-pyridine-2-carboxylic acid]
100 to 1000 nM	Cc1cc(C(=O)O)ncc1C#Cc1ccccc1NS(=O)(=O)c1cccc2c(N(C)C)ccnc12 [Compound 421, 5-[2-(4-Dimethylamino-quinoline-8-sulfonylamino)-phenylethynyl]-4-methyl-pyridine-2-carboxylic acid]
100 to 1000 nM	COc1cccc(S(C)(=O)=Nc2ccccc2C#Cc2ccc(C(=O)O)nc2)c1 (centres unmarked) [Compound 434, 5-[2-(2-{[(3-methoxyphenyl)(methyl)oxo-λ6-sulfanylidene]amino}phenyl)ethynyl] pyridine-2-carboxylic acid]
